According to PubChem BioAssay (NCI):
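These data come from cells grown in 96-well plates and exposed to compound for 48 hours at five concentrations. At the TGI there is no net growth.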

Tests used:
Assay in all cases: NCI-60 cell line screen, 48 h
SK-OV-3 ovarian = test system: SK-OV-3 ovarian
ACHN renal = test system: ACHN renal
SK-MEL-5 melanoma = test system: SK-MEL-5 melanoma
K-562 leukemia = test system: K-562 leukemia
RXF 393 renal = test system: RXF 393 renal
NCI-H460 lung = test system: NCI-H460 lung
HOP-92 NSCLC = test system: HOP-92 NSCLC
OVCAR-3 ovarian = test system: OVCAR-3 ovarian
786-0 renal = test system: 786-0 renal
A498 renal = test system: A498 renal
OVCAR-5 ovarian = test system: OVCAR-5 ovarian
PC-3 prostate = test system: PC-3 prostate
HS 578T breast = test system: HS 578T breast
MDA-N = test system: MDA-N
SNB-19 CNS = test system: SNB-19 CNS
SK-MEL-28 melanoma = test system: SK-MEL-28 melanoma
M14 melanoma = test system: M14 melanoma
EKVX NSCLC = test system: EKVX NSCLC
U251 CNS = test system: U251 CNS
MCF7 breast = test system: MCF7 breast
BT-549 breast = test system: BT-549 breast
SW-620 colon = test system: SW-620 colon
OVCAR-4 ovarian = test system: OVCAR-4 ovarian
NCI-H23 lung = test system: NCI-H23 lung
KM12 colon = test system: KM12 colon
T-47D breast = test system: T-47D breast
NCI-H226 lung = test system: NCI-H226 lung
SNB-75 CNS = test system: SNB-75 CNS
CCRF-CEM leukemia = test system: CCRF-CEM leukemia
SF-539 CNS = test system: SF-539 CNS
HCT-116 colon = test system: HCT-116 colon
IGROV1 ovarian = test system: IGROV1 ovarian
HT29 colon = test system: HT29 colon
MOLT-4 leukemia = test system: MOLT-4 leukemia
MDA-MB-435 = test system: MDA-MB-435
OVCAR-8 ovarian = test system: OVCAR-8 ovarian
A549 NSCLC = test system: A549 NSCLC
SR leukemia = test system: SR leukemia
NCI/ADR-RES ovarian = test system: NCI/ADR-RES ovarian
HCT-15 colon = test system: HCT-15 colon
RPMI-8226 leukemia = test system: RPMI-8226 leukemia
CAKI-1 renal = test system: CAKI-1 renal
MDA-MB-231 breast = test system: MDA-MB-231 breast
NCI-H522 lung = test system: NCI-H522 lung
SF-268 CNS = test system: SF-268 CNS
TK-10 renal = test system: TK-10 renal
UO-31 renal = test system: UO-31 renal
HCC-2998 colon = test system: HCC-2998 colon
UACC-257 melanoma = test system: UACC-257 melanoma
LOX IMVI melanoma = test system: LOX IMVI melanoma
SN12C renal = test system: SN12C renal
UACC-62 melanoma = test system: UACC-62 melanoma
SF-295 CNS = test system: SF-295 CNS
COLO 205 colon = test system: COLO 205 colon
SK-MEL-2 melanoma = test system: SK-MEL-2 melanoma
MALME-3M melanoma = test system: MALME-3M melanoma
DU-145 prostate = test system: DU-145 prostate
HOP-62 NSCLC = test system: HOP-62 NSCLC

In the case of COc1cccc2c(N)c3cccc(C(=O)NCCN(C)C)c3nc12, the TGI (SK-OV-3 ovarian) is reported as 1.97 µM, the TGI (ACHN renal) is reported as 2.03 µM and the TGI (SK-MEL-5 melanoma) is reported as 2.08 µM. It also gave a TGI (K-562 leukemia) of 0.383 µM, a TGI (RXF 393 renal) of 0.88 µM and a TGI (NCI-H460 lung) of 1.72 µM. It also gave a TGI (HOP-92 NSCLC) of 1.3 µM, a TGI (OVCAR-3 ovarian) of 1.7 µM and a TGI (786-0 renal) of 1.82 µM. The TGI (A498 renal) was 1.15 µM, the TGI (OVCAR-5 ovarian) was 3.4 µM and the TGI (PC-3 prostate) was 1.7 µM. It also gave a TGI (HS 578T breast) of 0.571 µM, a TGI (MDA-N) of 0.982 µM and a TGI (SNB-19 CNS) of 1.44 µM. It also gave a TGI (SK-MEL-28 melanoma) of 3.17 µM, a TGI (M14 melanoma) of 1.71 µM and a TGI (EKVX NSCLC) of 1.09 µM. It also gave a TGI (U251 CNS) of 1.57 µM, a TGI (MCF7 breast) of 1.57 µM and a TGI (BT-549 breast) of 4.95 µM. It also gave a TGI (SW-620 colon) of 2.71 µM, a TGI (OVCAR-4 ovarian) of 0.656 µM and a TGI (NCI-H23 lung) of 1.02 µM. It also gave a TGI (KM12 colon) of 3.59 µM, a TGI (T-47D breast) of 5.38 µM and a TGI (NCI-H226 lung) of 0.386 µM. For the same compound, the TGI (SNB-75 CNS) was 0.362 µM, the TGI (CCRF-CEM leukemia) was 0.288 µM and the TGI (SF-539 CNS) was 0.758 µM. It also gave a TGI (HCT-116 colon) of 0.726 µM, a TGI (IGROV1 ovarian) of 1.65 µM and a TGI (HT29 colon) of 0.633 µM. It also gave a TGI (MOLT-4 leukemia) of 0.264 µM, a TGI (MDA-MB-435) of 1.18 µM and a TGI (OVCAR-8 ovarian) of 0.594 µM. The TGI (A549 NSCLC) was 2.16 µM, the TGI (SR leukemia) was 1.12 µM and the TGI (NCI/ADR-RES ovarian) was 12.4 µM. The TGI (HCT-15 colon) was 21.2 µM, the TGI (RPMI-8226 leukemia) was 3.87 µM and the TGI (CAKI-1 renal) was 2.21 µM. It also gave a TGI (MDA-MB-231 breast) of 0.853 µM, a TGI (NCI-H522 lung) of 0.149 µM and a TGI (SF-268 CNS) of 0.51 µM. The TGI (TK-10 renal) was 6.14 µM, the TGI (UO-31 renal) was 3.04 µM and the TGI (HCC-2998 colon) was 0.971 µM. The TGI (UACC-257 melanoma) was 3.41 µM, the TGI (LOX IMVI melanoma) was 0.472 µM and the TGI (SN12C renal) was 0.488 µM. The TGI (UACC-62 melanoma) was 0.78 µM, the TGI (SF-295 CNS) was 2.01 µM and the TGI (COLO 205 colon) was 0.592 µM. The TGI (SK-MEL-2 melanoma) was 1.05 µM, the TGI (MALME-3M melanoma) was 0.501 µM and the TGI (DU-145 prostate) was 2.64 µM. The TGI (HOP-62 NSCLC) was 0.833 µM.
